The results in this text go back to patent publication US9296728B2, “Therapeutic compounds” (Regents of the University of Minnesota, priority 2012, dated 2016).

Series [1] in a line: Toxicity study in healthy ICR mice (body weight, WBC, RBC). The series is classed as in vivo. To be noted: for RBC ± SEM / WBC ± SEM: end of day 22. As for the experimental part: 60 ICR mice weighing ˜27 grams were randomly assigned into 5 groups (12 animals, 6 male and 6 female per group), one group being the control group without any drug administration (food only). The drugs were administered twice daily by P.O. or I.P. Group 1 and 3 were administered orally with 50 mg/Kg of Compound 20 and 18 mg/Kg of Compound 14 respectively. Group 2 and 4 mice were injected intraperitoneally with 6.67 mg/Kg of Compound 20 and 5.3 mg/Kg of Compound 14 (dissolved in water) respectively. The body weights of mice were recorded daily for 22 days. At the end of the 22nd day, 3 mice were randomly selected from each group and their blood samples were collected for detailed analysis of white blood cell (WBC) and red blood cell (RBC) counts. The mice were then euthanized with CO2.

A further series addresses MCT1 (Rattus norvegicus (Rat), UniProt P53987). Put plainly: Test A. MCT1 inhibition via lactate uptake in rat brain endothelial (RBE4) cells. The series is classed as cell-based. To be noted: 14C-lactate uptake. As for the experimental part: Test A. MCT1 Inhibition Via Lactate Uptake Rat Brain Endothelial Cells
The entire lactate uptake studies for the inhibition of MCT1 were carried out on RBE4 (Rat Brain Endothelial 4) cells. The expression of MCT1 on these cells was confirmed by Western Blotting. The cells were plated approximately 20-24 hours before the experiment, the number of cells being approximately 10^5 cells per well. The test compounds were dissolved in DMSO and diluted 1000 times using a solution of HEPES buffer (pH 7.43) which consists of 3 μM ^14C-Lactate and 2 μM L-Lactate. The cells were washed twice with 500 μL of HEPES buffer and the cells were allowed to equilibrate for 15 minutes at 37° C. The HEPES buffer was removed and 250 μL of the test sample was added in triplicates. This was repeated for all the compounds, including the controls (CHC and DMSO). After 15 minutes, the compounds were removed from the well and 500 μL of ice-cold stop buffer (0.1 mM CHC solution in HEPES buffer) was added. The plate was kept on ice. Now, the HEPES buffer in one triplicate was removed and DMSO solution was added and immediately removed and ice-cold stop buffer was added. This was considered as “Zero”. One triplicate was left blank, which was used for protein assay after lysing the cells. The cells were washed twice with ice-cold HEPES buffer and then 250 μL of 0.1M NaOH in 5% Triton-X solution was added and the plate is kept on a shaker for 40 minutes to lyse the cells. 150 μL of the lysed cells was added into 4 mL of the scintillation fluid in a scintillation vial and scintillation count was obtained in disintegrations per minute (dpm). The percent inhibition values were calculated by taking DMSO as minimum. Concentration study (usually 9-12 dilutions) was done to determine the IC50 of each compound.

MCT1, sequence (P53987 whole entry): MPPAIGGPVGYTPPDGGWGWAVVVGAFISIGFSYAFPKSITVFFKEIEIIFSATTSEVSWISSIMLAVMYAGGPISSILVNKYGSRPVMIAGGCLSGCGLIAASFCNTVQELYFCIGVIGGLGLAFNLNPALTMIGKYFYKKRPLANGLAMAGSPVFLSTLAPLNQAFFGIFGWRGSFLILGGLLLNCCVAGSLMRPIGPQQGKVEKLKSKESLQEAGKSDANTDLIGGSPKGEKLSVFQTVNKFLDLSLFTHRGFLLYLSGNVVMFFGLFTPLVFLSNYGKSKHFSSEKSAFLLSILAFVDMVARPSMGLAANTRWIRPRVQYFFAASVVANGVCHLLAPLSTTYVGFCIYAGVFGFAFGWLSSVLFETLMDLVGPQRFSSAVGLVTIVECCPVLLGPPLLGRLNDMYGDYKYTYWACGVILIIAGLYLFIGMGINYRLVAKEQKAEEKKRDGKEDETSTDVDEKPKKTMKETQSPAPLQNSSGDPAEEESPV
MCT1, sequence (P26453 141-388 partner): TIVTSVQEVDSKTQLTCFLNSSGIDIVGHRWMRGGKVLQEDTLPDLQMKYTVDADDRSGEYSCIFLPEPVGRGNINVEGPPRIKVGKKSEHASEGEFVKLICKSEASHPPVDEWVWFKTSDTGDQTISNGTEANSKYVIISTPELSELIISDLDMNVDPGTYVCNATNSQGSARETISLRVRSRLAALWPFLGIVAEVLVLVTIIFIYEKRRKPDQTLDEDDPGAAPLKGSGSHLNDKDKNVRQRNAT

Consider `COc1cc(N(c2ccccc2)c2ccccc2)ccc1/C=C(\C#N)C(=O)O` [Compound 20], for which, in series [1] (6.67 mg/kg i.p. twice daily), the “Weight in grams (Day 0)” value stood at 26.98 grams, the “Weight in grams (Day 22)” value stood at 33.54 grams, the “RBC ± SEM” value is reported as 1.82 ± 0.05 10^13/L and the “WBC ± SEM” value is recorded as 3.83 ± 0.38 10^10/L. Moreover, in series [1] (50 mg/kg p.o. twice daily), the “Weight in grams (Day 0)” value worked out at 26.91 grams, the “Weight in grams (Day 22)” value is on record as 32.61 grams, the “RBC ± SEM” value is given as 1.75 ± 0.06 10^13/L and the “WBC ± SEM” value is given as 4.10 ± 0.3 10^10/L. The compound also yielded an IC50 on MCT1 of 0.008 µM.
